Results reported in patent publication EP0500835B1, “A NOVEL QUINOLONE CARBOXYLIC ACID DERIVATIVE” (DAEWOONG PHARMACEUTICAL CO., LTD., priority 1990, dated 1992).
≈ marks a conversion by molar mass, not a printed value.

Key:
Test in all cases: In vitro antibacterial activity, MIC by agar dilution method
Format in all cases: cell-based
[1] = test system: E. cloacae 1321E; conditions: Enterobacter cloacae, 1321E, read-out: In vitro Antibacterial Activity, MIC
Description: (§1) The typical examples of the present compounds were tested for antimicrobial activity in vitro against twenty strains of Gram-positive and Gram-negative microorganisms.
(§2) The minimum inhibitory concentrations were determined according to the agar dilution method recommended by Japan Society of Chemotherapy[Chemotherapy., 29, 76 (1981)].

[2] = test system: S. typhimurium; conditions: Salmonella enterica, TYPHIMURIUM, read-out: In vitro Antibacterial Activity, MIC
Description: as §1, §2

[3] = test system: E. cloacae P99; conditions: Enterobacter cloacae, P99, read-out: In vitro Antibacterial Activity, MIC
Description: as §1, §2

[4] = test system: E. coli O 55; conditions: Escherichia coli, O55, read-out: In vitro Antibacterial Activity, MIC
Description: as §1, §2

[5] = test system: K. aerogenes 1522E; conditions: Klebsiella aerogenes, 1522E, read-out: In vitro Antibacterial Activity, MIC
Description: as §1, §2

[6] = test system: P. aeruginosa 1592E; conditions: Pseudomonas aeruginosa, 1592E, read-out: In vitro Antibacterial Activity, MIC
Description: as §1
(§3) The numerals in the table 1 show minimum inhibitory concentrations(MIC in µg/ml). The minimum inhibitory concentrations were determined according to the agar dilution method recommended by Japan Society of Chemotherapy[Chemotherapy., 29, 76 (1981)].

[7] = test system: P. aeruginosa 1771M; conditions: Pseudomonas aeruginosa, 1771M, read-out: In vitro Antibacterial Activity, MIC
Description: as §1, §3

[8] = test system: S. faecium MD 86; conditions: Enterococcus faecium, MD86, read-out: In vitro Antibacterial Activity, MIC
Description: as §1, §3

[9] = test system: E. coli 1507E; conditions: Escherichia coli, 1507E, read-out: In vitro Antibacterial Activity, MIC
Description: as §1, §3

[10] = test system: S. aureus SG 511; conditions: Staphylococcus aureus, SG511, read-out: In vitro Antibacterial Activity, MIC
Description: as §1, §3

[11] = test system: S. pyogenes A 308; conditions: Streptococcus pyogenes, A308, read-out: In vitro Antibacterial Activity, MIC
Description: as §1, §3

[12] = test system: E. coli TEM; conditions: Escherichia coli, read-out: In vitro Antibacterial Activity, MIC
Description: as §1, §3

[13] = test system: E. coli DC 0; conditions: Escherichia coli, DC0, read-out: In vitro Antibacterial Activity, MIC
Description: as §1, §3

[14] = test system: S. pyogenes A 77; conditions: Streptococcus pyogenes, A77, read-out: In vitro Antibacterial Activity, MIC
Description: as §1, §3

[15] = test system: S. aureus 285; conditions: Staphylococcus aureus, 285, read-out: In vitro Antibacterial Activity, MIC
Description: as §1, §3

[16] = test system: S. aureus 503; conditions: Staphylococcus aureus, 503, read-out: In vitro Antibacterial Activity, MIC
Description: as §1, §3

[17] = test system: P. aeruginosa 1771; conditions: Pseudomonas aeruginosa, 1771, read-out: In vitro Antibacterial Activity, MIC
Description: as §1, §3

[18] = test system: K. oxytoca 1082E; conditions: Klebsiella oxytoca, 1082E, read-out: In vitro Antibacterial Activity, MIC
Description: as §1, §3

[19] = test system: P. aeruginosa 9027; conditions: Pseudomonas aeruginosa, 9027, read-out: In vitro Antibacterial Activity, MIC
Description: as §1, §3

[20] = test system: E. coli DC 2; conditions: Escherichia coli, DC2, read-out: In vitro Antibacterial Activity, MIC
Description: as §1, §3

| SMILES | MIC [1] | MIC [2] | MIC [3] | MIC [4] | MIC [5] | MIC [6] | MIC [7] | MIC [8] | MIC [9] | MIC [10] | MIC [11] | MIC [12] | MIC [13] | MIC [14] | MIC [15] | MIC [16] | MIC [17] | MIC [18] | MIC [19] | MIC [20] |
| --- | --- | --- | --- | --- | --- | --- | --- | --- | --- | --- | --- | --- | --- | --- | --- | --- | --- | --- | --- | --- |
| CSCC1CCN(c2cc3c(cc2F)c(=O)c(C(=O)O)cn3C2CC2)C1 (stereo not shown) [Example 1, 1-cyclopropyl-6-fluoro-7-(3-methylthiomethylpyrrolidinyl)-1,4-dihydro-4-oxo-3-quinolinecarboxylic acid] | 0.195 µg/mL (≈ 0.518 µM) | 0.195 µg/mL (≈ 0.518 µM) | 0.195 µg/mL (≈ 0.518 µM) | 0.025 µg/mL (≈ 0.0664 µM) | 0.391 µg/mL (≈ 1.04 µM) | 1.56 µg/mL (≈ 4.15 µM) | 0.391 µg/mL (≈ 1.04 µM) | 0.781 µg/mL (≈ 2.07 µM) | 1.56 µg/mL (≈ 4.15 µM) | 0.025 µg/mL (≈ 0.0664 µM) | 1.56 µg/mL (≈ 4.15 µM) | 0.391 µg/mL (≈ 1.04 µM) | 3.12 µg/mL (≈ 8.3 µM) | 0.781 µg/mL (≈ 2.07 µM) | 0.025 µg/mL (≈ 0.0664 µM) | 0.025 µg/mL (≈ 0.0664 µM) | 0.781 µg/mL (≈ 2.07 µM) | 0.098 µg/mL (≈ 0.26 µM) | 1.56 µg/mL (≈ 4.15 µM) | 0.781 µg/mL (≈ 2.07 µM) |
| CSCC1CCN(c2c(F)c(F)c3c(=O)c(C(=O)O)cn(C4CC4)c3c2F)C1 (stereo not shown) [Example 3, 1-cyclpropyl-5,6,8-trifluoro-7-(3-methylthiomethylpyrrolidinyl)-1,4-dihydro-4-oxo-3-quinolinecarboxylic acid] | 0.391 µg/mL (≈ 0.948 µM) | 0.391 µg/mL (≈ 0.948 µM) | 0.391 µg/mL (≈ 0.948 µM) | 0.195 µg/mL (≈ 0.473 µM) | 0.781 µg/mL (≈ 1.89 µM) | 3.12 µg/mL (≈ 7.58 µM) | 1.56 µg/mL (≈ 3.79 µM) | 0.781 µg/mL (≈ 1.89 µM) | 3.12 µg/mL (≈ 7.58 µM) | 0.008 µg/mL (≈ 0.0194 µM) | 0.781 µg/mL (≈ 1.89 µM) | 3.12 µg/mL (≈ 7.58 µM) | 6.25 µg/mL (≈ 15.2 µM) | 1.56 µg/mL (≈ 3.79 µM) | 0.013 µg/mL (≈ 0.0315 µM) | 0.007 µg/mL (≈ 0.017 µM) | 1.56 µg/mL (≈ 3.79 µM) | 0.098 µg/mL (≈ 0.238 µM) | 3.12 µg/mL (≈ 7.58 µM) | 3.12 µg/mL (≈ 7.58 µM) |
